Literature values as cited in patent US12268783B2, “Platform drug delivery system utilizing crystal engineering and theanine dissolution” (THEAPRIN PHARMACEUTICALS, INC., priority 2015, dated 2025).

How the values were obtained:
[1] = in humans (so in the source)
[2] = test system: human dopaminergic cell line SH-SY5Y; conditions: SH-SY5Y cultures subjected to rotenone and dieldrin, treated or pre-treated with L-Theanine
[3] = test system: APP (Swedish Mutation) transgenic SH-SY5Y cell; conditions: via inhibition of the NMDA receptor pathway
rat brain regions = conditions: rat cerebral cortex, hippocampus and cerebellum
cancer cells = conditions: without an increase in DOX-induced side effects
[4] = test system: human red blood cells (RBC) exposed to venom or purified venom porin; conditions: RBC exposed to total venom or purified porin

Compound	LD50 toxicity [1]	DNA fragmentation and apoptotic cell death [2]	protection against glutamate-induced excitotoxicity [3]	protective effect against aluminum-induced neurotoxicity (rat brain regions)	effect on antitumor activity of doxorubicin (DOX) (cancer cells)	potassium efflux from RBC [4]
CCNC(=O)CC[C@H](N)C(=O)O [Theanine, 5-N-ethyl-glutamine]	> 5000 mg/kg	decreased DNA fragmentation and apoptotic cell death	protects	counteracting the damage inflicted by aluminum	enhances the antitumor activity of doxorubicin	–
zinc gluconate	–	–	–	–	–	inhibited potassium efflux
